According to PubChem BioAssay (NCI):
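Compound exposure: 48 hours, 5 concentrations, 96-well plates. At the GI50, growth is halved. The concentration for full growth arrest is given as TGI.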

Experiments:
Assay in all cases: DTP human tumour cell line panel, 48 h
RPMI-8226 leukemia = test system: RPMI-8226 leukemia
OVCAR-8 ovarian = test system: OVCAR-8 ovarian
NCI-H23 lung = test system: NCI-H23 lung
SNB-75 CNS = test system: SNB-75 CNS
UACC-62 melanoma = test system: UACC-62 melanoma
OVCAR-4 ovarian = test system: OVCAR-4 ovarian
PC-3 prostate = test system: PC-3 prostate
NCI-H460 lung = test system: NCI-H460 lung
DU-145 prostate = test system: DU-145 prostate
TK-10 renal = test system: TK-10 renal
A549 NSCLC = test system: A549 NSCLC
LOX IMVI melanoma = test system: LOX IMVI melanoma
T-47D breast = test system: T-47D breast
OVCAR-5 ovarian = test system: OVCAR-5 ovarian
SK-OV-3 ovarian = test system: SK-OV-3 ovarian
SK-MEL-28 melanoma = test system: SK-MEL-28 melanoma
SK-MEL-5 melanoma = test system: SK-MEL-5 melanoma
SNB-19 CNS = test system: SNB-19 CNS
HCC-2998 colon = test system: HCC-2998 colon
SF-268 CNS = test system: SF-268 CNS
UO-31 renal = test system: UO-31 renal
MALME-3M melanoma = test system: MALME-3M melanoma
RXF 393 renal = test system: RXF 393 renal
SF-539 CNS = test system: SF-539 CNS
786-0 renal = test system: 786-0 renal
HS 578T breast = test system: HS 578T breast
CAKI-1 renal = test system: CAKI-1 renal
OVCAR-3 ovarian = test system: OVCAR-3 ovarian
SN12C renal = test system: SN12C renal
A498 renal = test system: A498 renal
NCI-H522 lung = test system: NCI-H522 lung
SK-MEL-2 melanoma = test system: SK-MEL-2 melanoma
UACC-257 melanoma = test system: UACC-257 melanoma
U251 CNS = test system: U251 CNS
BT-549 breast = test system: BT-549 breast
M14 melanoma = test system: M14 melanoma
MDA-MB-231 breast = test system: MDA-MB-231 breast
HOP-92 NSCLC = test system: HOP-92 NSCLC
NCI-H226 lung = test system: NCI-H226 lung
CCRF-CEM leukemia = test system: CCRF-CEM leukemia
ACHN renal = test system: ACHN renal
HT29 colon = test system: HT29 colon
NCI/ADR-RES ovarian = test system: NCI/ADR-RES ovarian
HCT-15 colon = test system: HCT-15 colon
MOLT-4 leukemia = test system: MOLT-4 leukemia
MCF7 breast = test system: MCF7 breast
HL-60(TB) leukemia = test system: HL-60(TB) leukemia
K-562 leukemia = test system: K-562 leukemia
EKVX NSCLC = test system: EKVX NSCLC
COLO 205 colon = test system: COLO 205 colon
IGROV1 ovarian = test system: IGROV1 ovarian
KM12 colon = test system: KM12 colon
SF-295 CNS = test system: SF-295 CNS
SW-620 colon = test system: SW-620 colon
MDA-MB-435 = test system: MDA-MB-435
HCT-116 colon = test system: HCT-116 colon
HOP-62 NSCLC = test system: HOP-62 NSCLC

Cc1cc(C)c2c(c1)CC1(Cc3ccc(C)c(C)c3C1=O)C2=O (stereo not given)
TGI (RPMI-8226 leukemia): > 100 µM | TGI (OVCAR-8 ovarian): > 100 µM | TGI (NCI-H23 lung): > 100 µM | TGI (SNB-75 CNS): > 100 µM | TGI (UACC-62 melanoma): > 100 µM | TGI (OVCAR-4 ovarian): > 100 µM | TGI (PC-3 prostate): > 100 µM | TGI (NCI-H460 lung): > 100 µM | TGI (DU-145 prostate): > 100 µM | TGI (TK-10 renal): > 100 µM | TGI (A549 NSCLC): > 100 µM | TGI (LOX IMVI melanoma): > 100 µM | TGI (T-47D breast): > 100 µM | TGI (OVCAR-5 ovarian): > 100 µM | TGI (SK-OV-3 ovarian): > 100 µM | TGI (SK-MEL-28 melanoma): > 100 µM | TGI (SK-MEL-5 melanoma): > 100 µM | TGI (SNB-19 CNS): > 100 µM | TGI (HCC-2998 colon): > 100 µM | TGI (SF-268 CNS): > 100 µM | TGI (UO-31 renal): > 100 µM | TGI (MALME-3M melanoma): > 100 µM | TGI (RXF 393 renal): > 100 µM | TGI (SF-539 CNS): > 100 µM | TGI (786-0 renal): > 100 µM | TGI (HS 578T breast): > 100 µM | TGI (CAKI-1 renal): > 100 µM | TGI (OVCAR-3 ovarian): > 100 µM | TGI (SN12C renal): > 100 µM | TGI (A498 renal): > 100 µM | TGI (NCI-H522 lung): > 100 µM | TGI (SK-MEL-2 melanoma): > 100 µM | TGI (UACC-257 melanoma): > 100 µM | TGI (U251 CNS): > 100 µM | TGI (BT-549 breast): > 100 µM | TGI (M14 melanoma): > 100 µM | TGI (MDA-MB-231 breast): > 100 µM | TGI (HOP-92 NSCLC): > 100 µM

C[C@@H](Nc1nc(Nc2ccc(F)c(Cl)c2)nc2c(C3=CCNCC3)cccc12)C1CC1
GI50 (NCI-H226 lung): 2.31 µM | TGI (NCI-H226 lung): 5.03 µM | GI50 (UACC-62 melanoma): 1.82 µM | TGI (UACC-62 melanoma): 3.36 µM | GI50 (DU-145 prostate): 1.64 µM | TGI (DU-145 prostate): 3.04 µM | GI50 (T-47D breast): 1.91 µM | TGI (T-47D breast): 4.38 µM | GI50 (OVCAR-5 ovarian): 1.53 µM | TGI (OVCAR-5 ovarian): 3.25 µM | GI50 (CCRF-CEM leukemia): 2.21 µM | TGI (CCRF-CEM leukemia): 5.54 µM | GI50 (SF-539 CNS): 1.68 µM | TGI (SF-539 CNS): 3.17 µM | GI50 (HS 578T breast): 1.99 µM | TGI (HS 578T breast): 4.82 µM | GI50 (CAKI-1 renal): 1.58 µM | TGI (CAKI-1 renal): 2.99 µM | GI50 (ACHN renal): 1.81 µM | TGI (ACHN renal): 3.32 µM | GI50 (MDA-MB-231 breast): 1.72 µM | TGI (MDA-MB-231 breast): 3.28 µM

COc1ccc(Cl)cc1Nc1nc(C(F)(F)F)ccc1C(=O)N/N=C/c1cccnc1
GI50 (HT29 colon): 6.01 µM | TGI (HT29 colon): > 100 µM | GI50 (RPMI-8226 leukemia): 2.28 µM | TGI (RPMI-8226 leukemia): > 100 µM | GI50 (NCI-H226 lung): 3.49 µM | TGI (NCI-H226 lung): > 100 µM | GI50 (OVCAR-8 ovarian): 2.91 µM | TGI (OVCAR-8 ovarian): > 100 µM | GI50 (NCI-H23 lung): 5.34 µM | TGI (NCI-H23 lung): > 100 µM | GI50 (SNB-75 CNS): 3.87 µM | TGI (SNB-75 CNS): 49.7 µM | GI50 (NCI/ADR-RES ovarian): 3.8 µM | TGI (NCI/ADR-RES ovarian): > 100 µM | GI50 (HCT-15 colon): 1.42 µM | TGI (HCT-15 colon): > 100 µM | GI50 (MOLT-4 leukemia): 1.66 µM | TGI (MOLT-4 leukemia): > 100 µM | GI50 (UACC-62 melanoma): 3.69 µM | TGI (UACC-62 melanoma): > 100 µM | GI50 (OVCAR-4 ovarian): 0.521 µM | TGI (OVCAR-4 ovarian): > 100 µM | GI50 (MCF7 breast): 3.51 µM | TGI (MCF7 breast): > 100 µM | GI50 (PC-3 prostate): 3.8 µM | TGI (PC-3 prostate): > 100 µM | GI50 (NCI-H460 lung): 4.03 µM | TGI (NCI-H460 lung): > 100 µM | GI50 (DU-145 prostate): 7.22 µM | TGI (DU-145 prostate): > 100 µM | GI50 (TK-10 renal): 5.9 µM | TGI (TK-10 renal): > 100 µM | GI50 (A549 NSCLC): 5.49 µM | TGI (A549 NSCLC): > 100 µM | GI50 (LOX IMVI melanoma): 3.17 µM | TGI (LOX IMVI melanoma): > 100 µM | GI50 (T-47D breast): 2.12 µM | TGI (T-47D breast): > 100 µM | GI50 (SK-OV-3 ovarian): 2.47 µM | TGI (SK-OV-3 ovarian): > 100 µM | GI50 (HL-60(TB) leukemia): 1.95 µM | TGI (HL-60(TB) leukemia): > 100 µM | GI50 (K-562 leukemia): 3.16 µM | TGI (K-562 leukemia): > 100 µM | GI50 (SK-MEL-28 melanoma): 3.95 µM | TGI (SK-MEL-28 melanoma): > 100 µM | GI50 (SK-MEL-5 melanoma): 2.64 µM | TGI (SK-MEL-5 melanoma): 65.3 µM | GI50 (SNB-19 CNS): 3.78 µM | TGI (SNB-19 CNS): > 100 µM | GI50 (EKVX NSCLC): 2.98 µM | TGI (EKVX NSCLC): > 100 µM | GI50 (COLO 205 colon): 2.58 µM | TGI (COLO 205 colon): > 100 µM | GI50 (IGROV1 ovarian): 4.33 µM | TGI (IGROV1 ovarian): > 100 µM | GI50 (HCC-2998 colon): 1.99 µM | TGI (HCC-2998 colon): > 100 µM | GI50 (CCRF-CEM leukemia): 0.624 µM | TGI (CCRF-CEM leukemia): > 100 µM | GI50 (SF-268 CNS): 2.52 µM | TGI (SF-268 CNS): 61.5 µM | GI50 (UO-31 renal): 4.1 µM | TGI (UO-31 renal): > 100 µM | GI50 (KM12 colon): 3.63 µM | TGI (KM12 colon): > 100 µM | GI50 (MALME-3M melanoma): 2.55 µM | TGI (MALME-3M melanoma): > 100 µM | GI50 (SF-539 CNS): 5.12 µM | TGI (SF-539 CNS): > 100 µM | GI50 (786-0 renal): 2.63 µM | TGI (786-0 renal): > 100 µM | GI50 (SF-295 CNS): 1.28 µM | TGI (SF-295 CNS): 9.52 µM | GI50 (HS 578T breast): 11.8 µM | TGI (HS 578T breast): > 100 µM | GI50 (CAKI-1 renal): 3.84 µM | TGI (CAKI-1 renal): > 100 µM | GI50 (OVCAR-3 ovarian): 0.665 µM | TGI (OVCAR-3 ovarian): 6.82 µM | GI50 (SW-620 colon): 4.07 µM | TGI (SW-620 colon): > 100 µM | GI50 (SN12C renal): 7.78 µM | TGI (SN12C renal): > 100 µM | GI50 (MDA-MB-435): 5.63 µM | TGI (MDA-MB-435): > 100 µM | GI50 (A498 renal): 1.23 µM | TGI (A498 renal): > 100 µM | GI50 (ACHN renal): 4.04 µM | TGI (ACHN renal): > 100 µM | GI50 (NCI-H522 lung): 2.47 µM | TGI (NCI-H522 lung): 74.7 µM | GI50 (HCT-116 colon): 3.43 µM | TGI (HCT-116 colon): > 100 µM | GI50 (SK-MEL-2 melanoma): 3.5 µM | TGI (SK-MEL-2 melanoma): > 100 µM | GI50 (UACC-257 melanoma): 3.93 µM | TGI (UACC-257 melanoma): 9.88 µM | GI50 (U251 CNS): 2.4 µM | TGI (U251 CNS): > 100 µM | GI50 (HOP-62 NSCLC): 5.22 µM | TGI (HOP-62 NSCLC): 75 µM | GI50 (BT-549 breast): 1.99 µM | TGI (BT-549 breast): > 100 µM | GI50 (M14 melanoma): 2.42 µM | TGI (M14 melanoma): > 100 µM | GI50 (MDA-MB-231 breast): 4.51 µM | TGI (MDA-MB-231 breast): > 100 µM | GI50 (HOP-92 NSCLC): 2.42 µM | TGI (HOP-92 NSCLC): 28.3 µM
